In paper doi:10.1101/2020.07.24.219071v1 (biorxiv, 2020) one finds Kd data, which are given here for one compound.

Common to all, as to test: MicroScale Thermophoresis
Assay [1] addresses T1, Fatty acid-binding protein 4 (FABP4) (Homo sapiens, UniProt P15090).
T1 sequence (P15090 2-132): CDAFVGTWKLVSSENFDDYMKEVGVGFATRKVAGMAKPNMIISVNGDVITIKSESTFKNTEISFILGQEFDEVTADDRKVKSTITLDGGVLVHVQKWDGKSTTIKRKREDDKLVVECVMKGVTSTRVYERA

The next assay addresses T2, Menin (Homo sapiens, UniProt O00255).
T2 sequence (O00255 1-610): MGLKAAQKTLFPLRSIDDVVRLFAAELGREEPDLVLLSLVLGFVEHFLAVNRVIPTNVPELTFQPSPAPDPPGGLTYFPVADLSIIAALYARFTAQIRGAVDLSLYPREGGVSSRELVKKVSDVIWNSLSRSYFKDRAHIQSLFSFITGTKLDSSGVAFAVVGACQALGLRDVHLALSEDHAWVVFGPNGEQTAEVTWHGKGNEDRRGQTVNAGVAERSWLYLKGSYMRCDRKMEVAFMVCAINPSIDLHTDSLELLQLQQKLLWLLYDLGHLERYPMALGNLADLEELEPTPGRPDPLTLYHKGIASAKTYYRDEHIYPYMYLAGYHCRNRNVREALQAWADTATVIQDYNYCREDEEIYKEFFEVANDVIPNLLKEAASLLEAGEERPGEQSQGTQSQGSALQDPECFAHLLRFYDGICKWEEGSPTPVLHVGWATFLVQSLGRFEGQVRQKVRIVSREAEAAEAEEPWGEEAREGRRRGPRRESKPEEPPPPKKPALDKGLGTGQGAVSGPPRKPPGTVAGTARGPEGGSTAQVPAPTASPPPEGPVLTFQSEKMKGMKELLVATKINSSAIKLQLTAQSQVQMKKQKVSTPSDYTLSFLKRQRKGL
The assay is classed as binding.

The target in assay [2] is Nicotinamide/nicotinic acid mononucleotide adenylyltransferase 1 (NMNAT1) (Homo sapiens, UniProt Q9HAN9). It counts as binding.
Assay [3] has as its target Hematopoietic prostaglandin D synthase (HPGDS) (Homo sapiens, UniProt O60760). The assay is classed as binding.
The target in assay [4] is Glutamate receptor 2 (GRIA2) (Homo sapiens, UniProt P42262). It counts as binding.
Sequence of Glutamate receptor 2 (GRIA2) (P42262 25-543 limits assumed): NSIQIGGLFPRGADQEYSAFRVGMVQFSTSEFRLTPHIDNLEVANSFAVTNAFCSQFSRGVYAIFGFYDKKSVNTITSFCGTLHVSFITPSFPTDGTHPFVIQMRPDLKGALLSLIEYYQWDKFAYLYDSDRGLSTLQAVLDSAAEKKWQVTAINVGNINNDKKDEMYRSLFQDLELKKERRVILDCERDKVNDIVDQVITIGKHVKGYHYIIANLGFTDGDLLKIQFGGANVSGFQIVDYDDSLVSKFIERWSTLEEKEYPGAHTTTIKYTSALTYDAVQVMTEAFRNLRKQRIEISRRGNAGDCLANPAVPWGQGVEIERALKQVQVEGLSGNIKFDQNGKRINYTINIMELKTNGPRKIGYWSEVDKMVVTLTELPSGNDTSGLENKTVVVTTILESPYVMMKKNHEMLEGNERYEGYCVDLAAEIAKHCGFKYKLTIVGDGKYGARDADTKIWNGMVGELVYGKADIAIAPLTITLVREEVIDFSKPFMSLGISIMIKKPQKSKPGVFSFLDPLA

Sequence of Nicotinamide/nicotinic acid mononucleotide adenylyltransferase 1 (NMNAT1) (Q9HAN9 whole entry): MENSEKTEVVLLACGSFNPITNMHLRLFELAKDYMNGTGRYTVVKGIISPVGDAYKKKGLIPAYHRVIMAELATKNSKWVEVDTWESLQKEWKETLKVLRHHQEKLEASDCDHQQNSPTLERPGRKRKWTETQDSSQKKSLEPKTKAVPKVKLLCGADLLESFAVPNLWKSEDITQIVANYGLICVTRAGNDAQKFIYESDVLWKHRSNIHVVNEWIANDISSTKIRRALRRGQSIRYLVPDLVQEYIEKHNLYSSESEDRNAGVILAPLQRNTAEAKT
Sequence of Hematopoietic prostaglandin D synthase (HPGDS) (O60760 whole entry): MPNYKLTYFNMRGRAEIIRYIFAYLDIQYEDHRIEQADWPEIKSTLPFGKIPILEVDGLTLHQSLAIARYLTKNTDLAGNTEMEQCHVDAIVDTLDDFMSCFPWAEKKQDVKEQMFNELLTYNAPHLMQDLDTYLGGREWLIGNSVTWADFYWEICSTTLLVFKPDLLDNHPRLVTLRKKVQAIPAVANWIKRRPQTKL

For the compound `C[S+]([O-])c1ccc(-c2nc(-c3ccncc3)c(-c3ccc(F)cc3)[nH]2)cc1` (centres unmarked) [SB203580], the equilibrium dissociation constant (Kd) in assay [1] is > 500 µM; on Menin, > 500 µM; in assay [2], > 500 µM; in assay [3], 30.9 ± 4.54 µM; in assay [4], > 500 µM.
